Data from patent US20030155090A1, “Process for controlling microbial growth” (priority 2000, published 2003).

What was measured:
three isolated strains = experiment: Survival under a CO2 atmosphere, average of the three isolated strains; format: cell-based, bacteria; settings: for percentage of surviving cells, Average: 45° C.
Procedure: (§1) A set of representative bacterial strains was isolated from a white water sample from a Swedish recycled pulp mill. The sample originally yielded 70 bacterial strains which each represented a group of different bacteria, which grew under similar conditions. The strains were tested on different media and their oxygen demands were studied. The results gave an indication of eight main groups. […] Those three groups were put together to one large group.
(§2) From this dominating group, one strain was chosen for the carbon dioxide experiments. Two other strains from another recycled pulp mill were included in the experiments.
(§3) Glass bottles were tempered to 45° C. and CO2 was added to create a carbon dioxide atmosphere. Bacteria from the three isolated strains were added to separate bottles together with a nutrient broth. A first sample representing “0 min” was taken out immediately from each bottle and then at a number of occasions during the next three hours. Each sample was diluted in dilution series with dilution 1/10 in six steps (10^1-10^6) and grown on agar plates. The plates were incubated at 45° C. for two days, after which the number of colonies were counted and related to the dilution.

Strain 2 = experiment: Survival of isolated bacteria in nutrient broth under a CO2 atmosphere at 45° C., colony count on agar plates; format: cell-based
Procedure: as §1, §2, §3

Strain 1 = experiment: as above; format: cell-based
Procedure: as §1, §2, §3

Strain 3 = experiment: as above; format: cell-based
Procedure: as §1, §2, §3

[1] = system: microbial activity during storage; experiment: Full-scale mill trial, carbon dioxide introduced just prior to the pulp storage tower; settings: 1-2 kg CO2/ton pulp just prior to the storage tower, chemical pulp
Procedure: A mill produced wood-free paper from chemical pulp. At the time of the trials, the mill stored pulp for long periods of time in storage towers prior to the stock preparation. The storage caused problems with bad smell and black spots in the pulp, which was believed to be caused by high microbial activity during storage.
A full-scale trial of treatment with a gaseous inhibitor was performed. Thus, carbon dioxide gas was introduced in an amount of 1-2 kg CO2/ton pulp just prior to the storage tower.

O=C=O [CO2, carbon dioxide]
percentage of surviving cells, Average (three isolated strains; Average of Strains 1-3, 0 min): 100%
percentage of surviving cells, Average (three isolated strains; Average of Strains 1-3, 10 min): 103%
percentage of surviving cells, Average (three isolated strains; Average of Strains 1-3, 20 min): 62%
percentage of surviving cells, Average (three isolated strains; Average of Strains 1-3, 30 min): 89%
percentage of surviving cells, Average (three isolated strains; Average of Strains 1-3, 40 min): 48%
percentage of surviving cells, Average (three isolated strains; Average of Strains 1-3, 50 min): 64%
percentage of surviving cells, Average (three isolated strains; Average of Strains 1-3, 60 min): 57%
percentage of surviving cells, Average (three isolated strains; Average of Strains 1-3, 80 min): 57%
percentage of surviving cells, Average (three isolated strains; Average of Strains 1-3, 100 min): 38%
percentage of surviving cells, Average (three isolated strains; Average of Strains 1-3, 120 min): 47%
percentage of surviving cells, Average (three isolated strains; Average of Strains 1-3, 140 min): 16%
percentage of surviving cells, Average (three isolated strains; Average of Strains 1-3, 160 min): 16%
percentage of surviving cells, Average (three isolated strains; Average of Strains 1-3, 180 min): 12%
bacteria survived (three isolated strains; after 2 hours): about 50%
bacteria survived (three isolated strains; after 3 hours): more than 10%
bacteria survived (three isolated strains; after approximately 1 hour): about 60%
percentage of surviving cells (Strain 2; Strain 2, 0 min): 100%
percentage of surviving cells (Strain 2; Strain 2, 10 min): 141%
percentage of surviving cells (Strain 2; Strain 2, 20 min): 76%
percentage of surviving cells (Strain 2; Strain 2, 30 min): 137%
percentage of surviving cells (Strain 2; Strain 2, 40 min): 48%
percentage of surviving cells (Strain 2; Strain 2, 50 min): 94%
percentage of surviving cells (Strain 2; Strain 2, 60 min): 46%
percentage of surviving cells (Strain 2; Strain 2, 80 min): 88%
percentage of surviving cells (Strain 2; Strain 2, 100 min): 55%
percentage of surviving cells (Strain 2; Strain 2, 120 min): 43%
percentage of surviving cells (Strain 2; Strain 2, 140 min): 35%
percentage of surviving cells (Strain 2; Strain 2, 160 min): 41%
percentage of surviving cells (Strain 2; Strain 2, 180 min): 24%
percentage of surviving cells (Strain 1; Strain 1, 0 min): 100%
percentage of surviving cells (Strain 1; Strain 1, 10 min): 75%
percentage of surviving cells (Strain 1; Strain 1, 20 min): 34%
percentage of surviving cells (Strain 1; Strain 1, 30 min): 73%
percentage of surviving cells (Strain 1; Strain 1, 40 min): 50%
percentage of surviving cells (Strain 1; Strain 1, 50 min): 61%
percentage of surviving cells (Strain 1; Strain 1, 60 min): 59%
percentage of surviving cells (Strain 1; Strain 1, 80 min): 39%
percentage of surviving cells (Strain 1; Strain 1, 100 min): 16%
percentage of surviving cells (Strain 1; Strain 1, 120 min): 18%
percentage of surviving cells (Strain 1; Strain 1, 140 min): 5%
percentage of surviving cells (Strain 1; Strain 1, 160 min): 4%
percentage of surviving cells (Strain 1; Strain 1, 180 min): 9%
percentage of surviving cells (Strain 3; Strain 3, 0 min): 100%
percentage of surviving cells (Strain 3; Strain 3, 10 min): 92%
percentage of surviving cells (Strain 3; Strain 3, 20 min): 77%
percentage of surviving cells (Strain 3; Strain 3, 30 min): 58%
percentage of surviving cells (Strain 3; Strain 3, 40 min): 47%
percentage of surviving cells (Strain 3; Strain 3, 50 min): 36%
percentage of surviving cells (Strain 3; Strain 3, 60 min): 67%
percentage of surviving cells (Strain 3; Strain 3, 80 min): 44%
percentage of surviving cells (Strain 3; Strain 3, 100 min): 42%
percentage of surviving cells (Strain 3; Strain 3, 120 min): 16%
percentage of surviving cells (Strain 3; Strain 3, 140 min): 7%
percentage of surviving cells (Strain 3; Strain 3, 160 min): 4%
percentage of surviving cells (Strain 3; Strain 3, 180 min): 2%
number of black spots in the pulp [1]: reduced
pulp's smell [1]: reduced
